Experimental findings from patent US10022356B2, “Compounds for treatment of cancer” (UNIVERSITY OF TENNESSEE RESEARCH FOUNDATION, priority 2013, dated 2018) are described below.

“And” between values parts separate entries of the source, which are not always exact repeats. Equal entries are not always repeated.

One data set concerns WM164. Description: SRB cell culture cytotoxicity assay, WM-164. It is filed as cell-based, human. The settings on record: 48 h.
A further data set has as its system B16-F1. Description: SRB cell culture cytotoxicity assay, B16-F1. To be noted: 48 h. The data set is classed as cell-based, mouse.
Data set [1] deals with A375RF21. Description: MTS cell proliferation assay on vemurafenib-resistant A375RF21 cells. The data set is classed as cell-based. To be noted: Homo sapiens, read-out: IC50 value for proliferation inhibition.
Source text: Cell proliferation viability was investigated using MTS or SRB assay as described previously. An in vitro study of the combination of vemurafenib and the tubulin inhibitors was designed and conducted using CalcuSyn software (Biosoft, Ferguson, Mo.) with five duplicates of each set of treatment. Drug concentrations were selected based on the IC50 value of each drug tested from a pilot study.
The test system of data set [2] is A375. As to the kind of experiment: MTS cell proliferation assay on parental A375 cells. The data set is classed as cell-based. The settings on record: Homo sapiens, A-375, read-out: IC50 value for proliferation inhibition.
Procedure: Compounds were dissolved in dimethyl sulfoxide (DMSO, Sigma-Aldrich, St. Louis, Mo.) to make stock solution of 10 mM. […] All cell lines were authenticated prior to use for this study. Cells were cultured in DMEM medium (Mediatech, Inc., Manassas, Va.), supplemented by 10% fetal bovine serum (FBS, Atlanta Biologicals, Lawrenceville, Ga.), 1% antibiotic/antimycotic mixture (Sigma-Aldrich, St. Louis, Mo.) and 5 μg/mL bovine insulin (Sigma-Aldrich, St. Louis, Mo.).
Cell proliferation viability was investigated using MTS or SRB assay as described previously. […] Drug concentrations were selected based on the IC50 value of each drug tested from a pilot study.
Data set [3] deals with A375RF21. Description: Annexin V/propidium iodide apoptosis detection in A375RF21 cells. It is filed as cell-based, human. The settings on record: 48 hours incubation.
The subject of another data set is A375RF21 xenograft. As to the kind of experiment: A375RF21 tumor xenograft in nude mice. It is filed as in vivo. The method, then:
Seven to eight week old male nude mice were purchased from Charles River Laboratories International, Inc. (Wilmington, Mass.). A375RF21 cells were suspended in ice-cold phenol red-free and FBS-free DMEM medium without FBS and mixed with high concentration Matrigel (BD Biosciences, San Joes, Calif.) at ratio of 1:1 right before use. 100 μL of this mixture containing 3×10^6 cells were injected subcutaneously (s.c.) to the left-side dorsal flank of each mouse. One week after the inoculation, the mice were randomized into four groups (n=7 for the initial low dose and n=5 for subsequent high dose drug combination) and the treatments started. […] Vehicle control group was i.p. injected with same volume (100 μL) of PEG300 at the same dosing frequency. At the end of the experiments, mice were euthanized and tumor tissue were isolated, weighted and then fixed in 10% buffered formalin phosphate solution.
Tumor volume and body weight of each mouse were evaluated three times a week.

Data set [4] has as its system metastasis of melanoma to the lungs. As to the kind of experiment: Melanoma lung metastasis model in mice. The data set is classed as in vivo. The settings on record: i.p. injection 5 days per week for 2 weeks (FIG. 28).
Source text: Panel A: Representative photos of lungs with melanoma nodules (black dots, n=8 per group). Treatment was i.p. injection 5 days per week for 2 weeks. Panel B: Number of melanoma nodules on each lung. […] Panel C: Mouse body weight changes during the experiment. Points: means; bars: SD. Control: vehicle solution only.
The subject of data set [5] is A375. Description: SRB cell culture cytotoxicity assay, A375. The settings on record: Tables 11C, 11D; read-out: IC50 ± SEM (μm), A375. It is filed as cell-based, human.
The nature of a further data set: in vivo. To be noted: nude, mouse, 20 mg/kg.
The conditions of data set [6]: ICR, Sprague-Dawley, beagle, mouse, in vivo.
Procedure: All compounds (10 mg/kg) were dissolved in DMSO/PEG300 (1/9) and administered by a single intravenously (i.v.) injection (50 μL) into the tail vein.
The nature of data set [7]: Metabolic stability in human liver microsomes. To be noted: Table 13A; mean from duplicate studies.
A further data set concerns PPC-1. As to the kind of experiment: SRB cytotoxicity assay, PPC-1. It is filed as cell-based, human. To be noted: RABI, Tables 10A/10B; read-out: PPC1 (nM), inhibitory effects.
In a further data set the test system is MDA-MB-435/LCC6MDR1. As to the kind of experiment: SRB growth inhibition, multidrug-resistant MDA-MB-435/LCC6MDR1. The settings on record: Tables 11C, 11D; read-out: IC50 ± SEM (μm), MDA-MB-435/LCC6MDR1. It is filed as cell-based.
Another data set relates to MDA-MB-435. As to the kind of experiment: SRB growth inhibition, MDA-MB-435 (sensitive parent melanoma line). The data set is classed as cell-based, human. The settings on record: Tables 11C, 11D; read-out: IC50 ± SEM (μm), MDA-MB-435.
A further data set concerns LNCaP. Description: SRB cytotoxicity assay, LNCaP. The settings on record: Reversed aryl benzoyl imidazole (RABI), Tables 10A/10B; read-out: LNCaP (nM), inhibitory effects. The data set is classed as cell-based, human.
The subject of another data set is PC-3. As to the kind of experiment: SRB cytotoxicity assay, PC-3. To be noted: read-out: PC3 (nM), inhibitory effects; RABI, Tables 10A/10B.
The next data set has as its system Du 145. As to the kind of experiment: SRB cytotoxicity assay, Du 145. The settings on record: RABI, Tables 10A/10B; read-out: DU145 (nM), inhibitory effects. The data set is classed as cell-based, human.
A further data set relates to DU145/TXR. As to the kind of experiment: Growth inhibition, DU145/TXR. The data set is classed as cell-based. To be noted: RABI, Table 10A; read-out: DU145/TXR (nM), inhibitory effects.
Data set [8] concerns A375 human melanoma xenograft. Description: A375 human melanoma xenograft in SHO nude mice. The data set is classed as in vivo. To be noted: 25 mg/kg; after 31 days of treatment. The method, then: FIG. 19 depicts in vivo study of ABI compounds. […] C57BL/6 mice bearing B16-F1 melanoma allograft (n=5 per group). Each mouse received 0.5×10^6 cells by s.c. injection into the flank. 30 μL i.p. daily treatments were started when tumor size reached ˜100 mm^3. […] SHO nude mice bearing an A375 human melanoma xenograft (n=5 per group). Each mouse received 2.5×10^6 cells by s.c. injection into the flank. 30 μL i.p. daily treatments were started when the tumor size reached ˜150 mm^3. Control, vehicle solution only; points, means; bars, SD. DTIC, (5-(3,3,-dimethyl-1-triazenyl)-imidazole-4-carboxamide, dacarbazine.
Average body weight of all groups increased slightly throughout the experiment period.

The test system of a further data set is OVCAR-8. Description: Growth inhibition, OVCAR-8. It is filed as cell-based. The settings on record: Homo sapiens, OVCAR-8, read-out: IC50 (nM), OVCAR-8.
For another data set, the system named is B16-F1 melanoma cells. Description: B16-F1 melanoma colony formation assay in soft agar. The settings on record: 14 days; tested 20, 100, 500 nM. The data set is classed as cell-based, mouse. The procedure:
B16-F1 melanoma cells were plated at a colony-forming density (2000 cells per well on six-well plates) on top of 0.8% base agar. Cells were grown in 0.4% agar together with DMEM medium supplemented with fetal bovine serum and an antibiotic-antimycotic solution at 37° C. in an atmosphere of 95% air and 5% CO2. […] Compounds were added to the media from 1 mM DMSO stock solutions, and a corresponding dilution of DMSO was used as control. Cells were grown for 14 days. Plates were photographed, and the number of colonies was measured by Artek 880 Automated Colony Counter (Artek Systems Corporation, Farmingdale, N.Y.).

The test system of another data set is B16-F1 melanoma. Description: B16-F1 melanoma tumors in C57/BL mice. The data set is classed as in vivo. To be noted: after 13 days of treatment, C57BL/6 mice.
[9] abbreviates: vemurafenib 30 mg/kg, 12da 15 mg/kg, n=5.

Consider `COc1cc(C(=O)c2c[nH]c(-c3ccc(O)cc3)n2)cc(O)c1OC` [12kc], for which the IC50 came out at 6400 nM in the data set with WM164 and 5600 nM with B16-F1.
Take `COc1cc(C(=O)c2c[nH]c(-c3ccc(C)cc3)n2)cc(OC)c1OC` [12da, (2-(p-tolyl)-1H-imidazol-4-yl)(3,4,5-trimethoxyphenyl)methanone]: the IC50 in the data set with A375RF21 [1] amounted to 13.6 ± 4.4 nM; in the data set on A375 [2], 10.7 ± 1.5 nM. The “counted cell apoptosis or death (percentage sum of Q1, Q2 and Q4)” value in the data set with A375RF21 [3] worked out at 11.8±3.0%. In addition, the “TGI (%)” value in the data set on A375RF21 xenograft (12da 10 mg/kg, vemurafenib 20 mg/kg, i.p. once per day 5 days per week, after 3 weeks of treatment, n=7) is 38.12% and 38.12 ± 6.14%; in the data set on A375RF21 xenograft (setting [9]) it was 72.72% and 72.72 ± 8.29%. Further, the “Tumor weight (gram)” value with A375RF21 xenograft (12da 10 mg/kg, vemurafenib 20 mg/kg, after 3 weeks of treatment, n=7) is reported as 1.77 ± 0.11 gram; in the data set on A375RF21 xenograft (setting [9]), 0.51 ± 0.12 gram. Moreover, the “metastasis of melanoma to the lungs” value in data set [4] is “inhibition”.
With `COc1cc(Cc2nc(-c3ccccc3)c[nH]2)cc(OC)c1OC` [102a], the IC50 in the data set on A375 [5] was found to be 10200 ± 392 nM.
Compound `COc1cc(C(=O)c2csc(Nc3ccc4[nH]ccc4c3)n2)cc(OC)c1OC` [compound 55] showed a Kp in “in vivo” of 3.2. In [6], the “oral bioavailability rates among three species” value is on record as 24-36%. Further, the “half-life in human liver microsomes” value in data set [7] came to 28 min.
With `COc1cc(-c2c[nH]c(C(=O)c3ccccc3)n2)cc(OC)c1OC` [70x], the IC50 with PPC-1 turned out to be 408 nM; in the data set with MDA-MB-435/LCC6MDR1 it was 5770 nM; in the data set on MDA-MB-435, 4600 nM; in the data set on LNCaP it was 195 nM; with PC-3 it was 632 nM; with Du 145, 1300 nM.
As to `COc1cc(C(=O)c2nc(-c3ccc(Cl)cc3)c[nH]2)cc(OC)c1OC` [70c], the IC50 in the data set on DU145/TXR amounted to 121 nM.
As for `O=C(c1ccc(F)cc1)c1c[nH]c(-c2ccc(Cl)cc2)n1` [12fb, (2-(4-chlorophenyl)-1H-imidazol-4-yl)(4-fluorophenyl)methanone], the “melanoma tumor growth inhibition (TGI value)” value in data set [8] amounted to 69%; in the data set on B16-F1 melanoma (15 mg/kg), 32%; in the data set with B16-F1 melanoma (45 mg/kg), 82%. Besides, in the data set on OVCAR-8, the IC50 is 47 nM. Moreover, in the data set with B16-F1 melanoma cells, the “concentration showing effective inhibition of B16-F1 colony formation” value is 100 nM. For the same compound, the “metastasis of melanoma to the lungs” value in data set [4] was “inhibition”.
